Laboratory results reported in patent publication US20240376126A1, “PRMT5 INHIBITOR AND THE USE THEREOF” (CYTOSINLAB THERAPEUTICS CO., LTD., priority 2022, published 2024).
Read-outs that look alike come from different tables or passages of the source.

How the values were obtained:
[1] = target: PRMT5 MTA (Homo sapiens (Human), UniProt O14744); experiment: PRMT5 inhibitory activity assay in vitro, enzyme solution with MTA ([3H]-SAM Flashplate); format: biochemical; conditions: MTA 2.0 um; read-out: Enzyme activity inhibition rate PRMT5 MTA (2.0 um) IC50 (nm)
Excerpt: Biological Test Example 1 PRMT5 Inhibitory Activity Assay In Vitro
PRMT5 (Active Motiv, catalog number 31921), [^3H]—SAM (Perkin Elmer, catalog number NET155V001MC), SAM (Sigma, catalog number A7007), MTA (Sigma, catalog number D5011), SAH (Sigma, catalog number A9384), 384-well plate (Perkin Elmer, catalog number 6007299), Echo 550 (manufacturer: Labcyte, model: Echo 550), 384-well Flashplate (manufacturer: Perkin Elmer, model: SMP410A001PK)
• (1) 1× Assay buffer (modified Tris buffer) was configured. • (2) Dilute compound: the compound was dissolved in 100% DMSO and the compound solution was added to a 384-well plate using Echo 550. • (3) Configure enzyme solution: PRMT5 was added to 1× assay buffer to prepare enzyme solution 1; PRMT5 and MTA was added to 1× assay buffer to prepare enzyme solution 2. • (4) Configure substrate solution: peptide segments and [3H]—SAM was added to 1× assay buffer. • (5) 15 μL of enzyme solution was added to the 384-well plate, and 15 μL of 1× assay buffer was added to the negative control well, and incubated at room temperature for 30 minutes. • (6) 15 μL of substrate solution was added to each well, and incubated at room temperature for 90 minutes. • (7) Configure termination reaction solution: pre-cooled SAM was added to 1× assay buffer. • (8) 10 μL of termination reaction solution was added to each well to terminate the reaction. • (9) 25 μL/well of the mixed solution was transferred to Flashplate and incubated for 1 hour at room temperature. • (10) the Flashplate three was washed times with dH2O+0.1% Tween-20 solution. • (11) the radiometric values was readed with Microbeta.
• (1) The raw data were converted to % inhibition according to Equation 1.
%inhibition=(Max−Signal)/(Max−Min)*100 Equation 1: • (2) the % inhibition data were entered into XL-Fit Equation 2 to obtain IC50 value:
Y=Bottom+(Top−Bottom)/(1+(IC50/X)[…]) Equation 2: • wherein, Y is the % inhibition, and X is the concentration of the compound.

[2] = tested on: HCT116 MTAP WT cells; experiment: Proliferation inhibition of HCT116 cells in vitro (CellTiter Glo, 6 days); format: cell-based; conditions: Homo sapiens, HCT-116, 144 h, read-out: Cell proliferation inhibition rate HCT116 MTAP WT IC50 (nm)
[3] = tested on: HCT116-MTAP-KO (MTAP null) cells; experiment: Proliferation inhibition of HCT116 MTAP-KO cells in vitro (CellTiter Glo, 6 days); format: cell-based; conditions: 144 h, read-out: Cell proliferation inhibition rate HCT116-MTAP null IC50 (nm)

PRMT5 MTA, sequence (O14744 whole entry, looked up): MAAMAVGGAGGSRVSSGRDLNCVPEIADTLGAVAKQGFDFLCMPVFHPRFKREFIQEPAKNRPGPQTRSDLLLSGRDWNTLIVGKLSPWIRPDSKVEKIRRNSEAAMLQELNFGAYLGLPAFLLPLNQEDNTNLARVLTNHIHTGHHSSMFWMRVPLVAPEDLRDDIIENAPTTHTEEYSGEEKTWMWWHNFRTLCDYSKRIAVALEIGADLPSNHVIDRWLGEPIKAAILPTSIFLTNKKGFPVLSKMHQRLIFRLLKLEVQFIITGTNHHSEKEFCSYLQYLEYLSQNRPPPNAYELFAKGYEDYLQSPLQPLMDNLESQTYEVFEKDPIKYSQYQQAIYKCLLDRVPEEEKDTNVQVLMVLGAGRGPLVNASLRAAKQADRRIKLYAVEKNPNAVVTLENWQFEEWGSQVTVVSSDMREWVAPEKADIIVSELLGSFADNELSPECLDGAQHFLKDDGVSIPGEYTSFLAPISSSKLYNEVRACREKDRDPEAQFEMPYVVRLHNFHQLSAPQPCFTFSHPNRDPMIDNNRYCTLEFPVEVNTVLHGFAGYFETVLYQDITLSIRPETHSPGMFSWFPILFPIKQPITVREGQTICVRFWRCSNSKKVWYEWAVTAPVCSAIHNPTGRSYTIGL
PRMT5 MTA, sequence (Q9BQA1 whole entry partner, looked up): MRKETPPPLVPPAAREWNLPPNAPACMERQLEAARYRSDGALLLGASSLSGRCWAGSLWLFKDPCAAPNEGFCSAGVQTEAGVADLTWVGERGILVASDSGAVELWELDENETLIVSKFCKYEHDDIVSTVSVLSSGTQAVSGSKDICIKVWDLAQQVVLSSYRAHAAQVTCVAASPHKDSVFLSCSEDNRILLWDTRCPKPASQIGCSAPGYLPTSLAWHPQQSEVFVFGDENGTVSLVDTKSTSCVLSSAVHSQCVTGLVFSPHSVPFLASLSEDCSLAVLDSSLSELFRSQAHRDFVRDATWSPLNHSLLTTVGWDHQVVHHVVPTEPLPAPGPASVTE

| IC50 [2] [µM] | IC50 ([3]; HCT116-MTAP null) [µM] | SMILES | IC50 [1] [µM] | IC50 [3] [µM] |
| --- | --- | --- | --- | --- |
| – | – | Cc1cc2cc(C(=O)N(Cc3nc4ccccc4s3)C34CC(C3)C4)ccc2nc1N [Example 148] | 0.0026 | – |
| 1 to 10 | < 0.1 | Cc1ncn2c1c(N)nc1cc(F)c(C(=O)N(Cc3cn4cc(C(F)(F)F)ccc4n3)CC(C)C)cc12 [Example 282] | – | – |
| 0.1 to 1 | < 0.1 | COC1CCC1N(Cc1cn2cc(C(F)(F)F)ccc2n1)C(=O)c1cc2c(cc1F)nc(N)c1c(C)ncn12 (stereo not drawn) [Example 284] | – | – |
| 0.1 to 1 | < 0.1 | COCC(C)N(Cc1cn2cc(C(F)(F)F)ccc2n1)C(=O)c1cc2c(cc1F)nc(N)c1c(C)ncn12 (stereo not drawn) [Example 285, 4-Amino-7-fluoro-N-(1-methoxypropan-2-yl)-3-methyl-N-((6-(trifluoromethyl)imidazolo[1,2-a]pyridin-2-yl)methyl)imidazo[1,5-a]quinoxalin-8-carboxamide] | – | – |
| 1 to 10 | < 0.1 | COC1CCC1N(Cc1cn2cc(C(F)(F)F)ccc2n1)C(=O)c1ccc2nc(N)c3c(C)ncn3c2c1 (stereo not drawn) [Example 286] | – | – |
| 1 to 10 | < 0.1 | COCC(C)N(Cc1cn2cc(C(F)(F)F)ccc2n1)C(=O)c1ccc2nc(N)c3c(C)ncn3c2c1 (stereo not drawn) [Example 288] | – | – |
| 1 to 10 | < 0.1 | Cc1cnn2c1c(N)nc1ccc(C(=O)N(Cc3cn4cc(C(F)(F)F)ccc4n3)CC(C)C)cc12 [Example 290] | – | – |
| 1 to 10 | 0.1 to 1 | Cc1ncn2c1c(N)nc1ccc(C(=O)N(c3cnn(C)c3)C(C)c3cn4cc(C(F)(F)F)ccc4n3)cc12 (stereo not drawn) [Example 292] | – | – |
| 1 to 10 | 0.1 to 1 | Cc1ncn2c1c(N)nc1ccc(C(=O)N(Cc3cn4cc(C(F)(F)F)ccc4n3)c3cnn(C)c3)cc12 [Example 293] | – | – |
| 1 to 10 | < 0.1 | COC1CCCC1N(Cc1cn2cc(C(F)(F)F)ccc2n1)C(=O)c1ccc2nc(N)c3c(C)ncn3c2c1 (stereo not drawn) [Example 294] | – | – |
| 1 to 10 | 0.1 to 1 | Cc1ncn2c1c(N)nc1ccc(C(=O)N(CC(C)C)C(C)c3cn4cc(C(F)(F)F)ccc4n3)cc12 (stereo not drawn) [Example 296] | – | – |
| 1 to 10 | < 0.1 | Cc1ncn2c1c(N)nc1ccc(C(=O)N(Cc3cn4ccccc4n3)CC(C)C)cc12 [Example 297] | – | – |
| 1 to 10 | 0.1 to 1 | CCN(C(=O)c1ccc2nc(N)c3c(C)ncn3c2c1)C(C)c1cn2ccccc2n1 (stereo not drawn) [Example 298] | – | – |
| 1 to 10 | < 0.1 | Cc1ncn2c1c(N)nc1ccc(C(=O)N(Cc3cn4cc(C(F)(F)F)ccc4n3)CC(C)C)cc12 [Example 299] | – | – |
| 1 to 10 | < 0.1 | Cc1ncc2c(N)nc3ccc(C(=O)N(Cc4cn5cc(C(F)(F)F)ccc5n4)c4c(F)cnn4C)cc3n12 [Example 300] | – | – |
| 0.1 to 1 | < 0.1 | Cc1ncc2c(N)nc3cnc(C(=O)N(Cc4cn5cc(C(F)(F)F)ccc5n4)c4c(F)cnn4C)cc3n12 [Example 302] | – | – |
| 0.1 to 1 | < 0.1 | Cc1ncc2c(N)nc3cc(F)c(C(=O)N(Cc4cn5cc(C(F)F)ccc5n4)c4c(F)cnn4C)cc3n12 [Example 303] | – | – |
| 0.1 to 1 | < 0.1 | CC(c1ncccn1)N(Cc1nc2cnccc2s1)C(=O)c1ccc2nc(N)c3c(c2c1)COC3 (stereo not drawn) [Example 304, 4-Amino-N-(1-(pyrimidin-2-yl)ethyl)-N-(thiazolo[4,5-c]pyridin-2-ylmethyl)-1,3-dihydrofurano[3,4-c]quinolin-8-carboxamide] | – | – |
| 1 to 10 | < 0.1 | Cc1nn(C)cc1N(Cc1cn2cc(C(F)(F)F)ccc2n1)C(=O)c1ccc2nc(N)c3c(c2c1)CO[C@@H]3C [Example 305, (3R)-4-Amino-N-(1,3-dimethylpyrazol-4-yl)-3-methyl-N-[[6-(trifluoromethyl)imidazo[1,2-a]pyridin-2-yl]methyl]-1,3-dihydrofurano[3,4-c]quinolin-8-carboxamide] | – | – |
| 1 to 10 | < 0.1 | Cc1nn(C)cc1N(Cc1cn2cc(C(F)(F)F)ccc2n1)C(=O)c1ccc2nc(N)c3c(c2c1)COC3C (stereo not drawn) [Example 313, 4-Amino-N-(1,3-dimethylpyrazol-4-yl)-3-methyl-N-[[6-(trifluoromethyl)imidazolo[1,2-a]pyridin-2-yl]methyl]-1,3-dihydrofurano[3,4-c]quinolin-8-carboxamide] | – | – |

| SMILES | IC50 [2] [µM] | IC50 ([3]; HCT116-MTAP null) [µM] | IC50 [1] [µM] | IC50 [3] [µM] |
| --- | --- | --- | --- | --- |
| CC(c1ncccn1)N(Cc1cn2ccccc2n1)C(=O)c1ccc2nc(N)c3c(c2c1)CCC3 (stereo not drawn) [Example 1, 4-Amino-N-(pyrazolo[1,5-a]pyridin-2-ylmethyl)-N-(1-(pyrimidin-2-yl)ethyl)-2,3-dihydro-1H-cyclopentadieno[c]quinolin-8-carboxamide] | 1 to 10 | – | 0.0051 | < 0.1 |
| CCN(Cc1cn2ccccc2n1)C(=O)c1cc2c(cc1F)nc(N)c1cnn(C)c12 [Example 2] | 1 to 10 | – | 0.003 | < 0.1 |
| CC(C)CN(Cc1cn2cc(C(F)(F)F)ccc2n1)C(=O)c1ccc2nc(N)c3cnn(C)c3c2c1 [Example 4] | 1 to 10 | – | 0.0017 | < 0.1 |
| COCC(C1CC1)N(Cc1nc2ccccc2[nH]1)C(=O)c1ccc2nc(N)c(C)cc2c1 (stereo not drawn) [Example 127] | 1 to 10 | – | 0.0037 | < 0.1 |
| CC(C)CN(Cc1nc2ccc(C(F)(F)F)cc2[nH]1)C(=O)c1ccc2nc(N)c3cnn(C)c3c2c1 [Example 132] | 1 to 10 | – | 0.0044 | < 0.1 |
| COCC(C1CC1)N(Cc1nc2ccccc2s1)C(=O)c1ccc2nc(N)c3c(c2c1)CCC3 (stereo not drawn) [Example 147] | 1 to 10 | – | 0.0029 | 0.1 to 1 |
